Literature values as cited in patent US20260345571A1, “DELAMANID-CONTAINING SOLID DISPERSION” (priority 2022, published 2026).

Experiments:
[1] = tested on: Mycobacterium tuberculosis; conditions: PTL 1
[2] = tested on: atypical mycobacteria; conditions: PTL 1
[3] = melting point about 195 °C (decomposition)

C[C@]1(COc2ccc(N3CCC(Oc4ccc(OC(F)(F)F)cc4)CC3)cc2)Cn2cc([N+](=O)[O-])nc2O1 [Delamanid, (2R)-2-methyl-6-nitro-2-[(4-{4-[4-(trifluoromethoxy)phenoxy]piperidin-1-yl}phenoxy)methyl]-2,3-dihydroimidazo[2,1-b]oxazole]
Bactericidal action against Mycobacterium tuberculosis [1]: excellent bactericidal action
Bactericidal action against atypical mycobacteria [2]: excellent bactericidal action
Thermal stability [3]: poor thermal stability
